Source: the supplement of paper PMC10733146

Key:
Assay in all cases: viability relative to DMSO control (fraction); higher = less drug effect (more viable cells)
Details in all cases: 48 h
[1] = tested on: primary AML patient cells (S085)
Procedure, shortened: (§1)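 The cells were primary mononuclear tumour cells, either fresh or cryopreserved, isolated by Ficoll from blood or bone marrow or derived from processed lymph node. Each well of a 384-well plate received 4 × 10^4 cells onto compounds pre-plated at five concentrations, with one well per concentration. The medium was RPMI-1640 with penicillin/streptomycin, L-glutamine and human serum, and plates stood at 37 °C and 5% CO2 for 48 h. Viability is reported as CellTiter-Glo luminescence relative to the median of 16 inner DMSO wells.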

[2] = tested on: primary MCL patient cells (S041)
Procedure, shortened: as §1

[3] = tested on: primary MCL patient cells (S063)
Procedure, shortened: as §1

[4] = tested on: primary T-NHL patient cells (S058)
Procedure, shortened: as §1

[5] = tested on: primary AML patient cells (S012)
Procedure, shortened: as §1

[6] = tested on: primary AML patient cells (S056)
Procedure, shortened: as §1

[7] = tested on: primary DLBCL patient cells (S049)
Procedure, shortened: as §1

[8] = tested on: primary MCL patient cells (S068)
Procedure, shortened: as §1

[9] = tested on: primary CLL patient cells (S031)
Procedure, shortened: as §1

[10] = tested on: primary T-PLL patient cells (S008)
Procedure, shortened: as §1

[11] = tested on: primary AML patient cells (S037)
Procedure, shortened: as §1

[12] = tested on: primary BL patient cells (S005)
Procedure, shortened: as §1

[13] = tested on: primary AML patient cells (S011)
Procedure, shortened: as §1

[14] = tested on: primary DLBCL patient cells (S076)
Procedure, shortened: as §1

[15] = tested on: primary AML patient cells (S081)
Procedure, shortened: as §1

[16] = tested on: primary AML patient cells (S006)
Procedure, shortened: as §1

[17] = tested on: primary CLL patient cells (S043)
Procedure, shortened: as §1

COc1ccc(C2=N[C@@H](c3ccc(Cl)cc3)[C@@H](c3ccc(Cl)cc3)N2C(=O)N2CCNC(=O)C2)c(OC(C)C)c1 [Nutlin-3a]
viability ([1]; 0.032 µM): 1.06 | viability ([1]; 0.16 µM): 1.31 | viability ([1]; 0.8 µM): 0.877 | viability ([1]; 4 µM): 0.509 | viability ([1]; 20 µM): 0.503 | viability ([2]; 0.032 µM): 0.988 | viability ([2]; 0.16 µM): 0.976 | viability ([2]; 0.8 µM): 0.921 | viability ([2]; 4 µM): 0.717 | viability ([2]; 20 µM): 0.34 | viability ([3]; 0.032 µM): 0.998 | viability ([3]; 0.16 µM): 0.985 | viability ([3]; 0.8 µM): 0.984 | viability ([3]; 4 µM): 0.608 | viability ([3]; 20 µM): 0.215 | viability ([4]; 0.032 µM): 0.946 | viability ([4]; 0.16 µM): 0.939 | viability ([4]; 0.8 µM): 0.941 | viability ([4]; 4 µM): 0.634 | viability ([4]; 20 µM): 0.18 | viability ([5]; 0.032 µM): 0.945 | viability ([5]; 0.16 µM): 0.946 | viability ([5]; 0.8 µM): 1.03 | viability ([5]; 4 µM): 1.01 | viability ([5]; 20 µM): 0.883 | viability ([6]; 0.032 µM): 1.1 | viability ([6]; 0.16 µM): 1.07 | viability ([6]; 0.8 µM): 0.706 | viability ([6]; 4 µM): 0.425 | viability ([6]; 20 µM): 0.45 | viability ([7]; 0.032 µM): 1.1 | viability ([7]; 0.16 µM): 0.987 | viability ([7]; 0.8 µM): 1.01 | viability ([7]; 4 µM): 1.04 | viability ([7]; 20 µM): 0.835 | viability ([8]; 0.032 µM): 1.17 | viability ([8]; 0.16 µM): 0.988 | viability ([8]; 0.8 µM): 0.987 | viability ([8]; 4 µM): 0.929 | viability ([8]; 20 µM): 0.949 | viability ([9]; 0.032 µM): 0.869 | viability ([9]; 0.16 µM): 0.929 | viability ([9]; 0.8 µM): 0.8 | viability ([9]; 4 µM): 0.451 | viability ([9]; 20 µM): 0.089 | viability ([10]; 0.032 µM): 1 | viability ([10]; 0.16 µM): 0.972 | viability ([10]; 0.8 µM): 0.963 | viability ([10]; 4 µM): 0.583 | viability ([10]; 20 µM): 0.205 | viability ([11]; 0.032 µM): 0.982 | viability ([11]; 0.16 µM): 0.974 | viability ([11]; 0.8 µM): 0.964 | viability ([11]; 4 µM): 0.742 | viability ([11]; 20 µM): 0.421 | viability ([12]; 0.032 µM): 0.962 | viability ([12]; 0.16 µM): 0.887 | viability ([12]; 0.8 µM): 1.01 | viability ([12]; 4 µM): 0.91 | viability ([12]; 20 µM): 0.827 | viability ([13]; 0.032 µM): 0.973 | viability ([13]; 0.16 µM): 1.04 | viability ([13]; 0.8 µM): 0.8 | viability ([13]; 4 µM): 0.363 | viability ([13]; 20 µM): 0.155 | viability ([14]; 0.032 µM): 0.907 | viability ([14]; 0.16 µM): 0.909 | viability ([14]; 0.8 µM): 0.934 | viability ([14]; 4 µM): 0.737 | viability ([14]; 20 µM): 0.357 | viability ([15]; 0.032 µM): 0.997 | viability ([15]; 0.16 µM): 0.979 | viability ([15]; 0.8 µM): 1.03 | viability ([15]; 4 µM): 1.02 | viability ([15]; 20 µM): 0.783 | viability ([16]; 0.032 µM): 1.01 | viability ([16]; 0.16 µM): 0.917 | viability ([16]; 0.8 µM): 0.694 | viability ([16]; 4 µM): 0.136 | viability ([16]; 20 µM): 0.0568 | viability ([17]; 0.032 µM): 1.05 | viability ([17]; 0.16 µM): 1.01 | viability ([17]; 0.8 µM): 1.04 | viability ([17]; 4 µM): 0.894 | viability ([17]; 20 µM): 0.322

CO[C@H]1C[C@@H]2CC[C@@H](C)[C@@](O)(O2)C(=O)C(=O)N2CCCC[C@H]2C(=O)O[C@H]([C@H](C)C[C@@H]2CC[C@@H](OC(=O)C(C)(CO)CO)[C@H](OC)C2)CC(=O)[C@H](C)/C=C(\C)[C@@H](O)[C@@H](OC)C(=O)[C@H](C)C[C@H](C)/C=C/C=C/C=C/1C [Temsirolimus]
viability ([1]; 0.032 µM): 0.852 | viability ([1]; 0.16 µM): 0.752 | viability ([1]; 0.8 µM): 0.918 | viability ([1]; 4 µM): 0.79 | viability ([1]; 20 µM): 0.58 | viability ([2]; 0.032 µM): 0.853 | viability ([2]; 0.16 µM): 0.829 | viability ([2]; 0.8 µM): 0.858 | viability ([2]; 4 µM): 0.848 | viability ([2]; 20 µM): 0.768 | viability ([3]; 0.032 µM): 0.913 | viability ([3]; 0.16 µM): 0.892 | viability ([3]; 0.8 µM): 0.9 | viability ([3]; 4 µM): 0.946 | viability ([3]; 20 µM): 0.843 | viability ([4]; 0.032 µM): 0.902 | viability ([4]; 0.16 µM): 0.809 | viability ([4]; 0.8 µM): 0.904 | viability ([4]; 4 µM): 0.873 | viability ([4]; 20 µM): 0.697 | viability ([5]; 0.032 µM): 0.814 | viability ([5]; 0.16 µM): 0.732 | viability ([5]; 0.8 µM): 0.85 | viability ([5]; 4 µM): 0.845 | viability ([5]; 20 µM): 0.702 | viability ([6]; 0.032 µM): 0.606 | viability ([6]; 0.16 µM): 0.789 | viability ([6]; 0.8 µM): 0.847 | viability ([6]; 4 µM): 0.735 | viability ([6]; 20 µM): 0.425 | viability ([7]; 0.032 µM): 1.02 | viability ([7]; 0.16 µM): 0.986 | viability ([7]; 0.8 µM): 0.987 | viability ([7]; 4 µM): 0.966 | viability ([7]; 20 µM): 0.794 | viability ([8]; 0.032 µM): 0.604 | viability ([8]; 0.16 µM): 0.614 | viability ([8]; 0.8 µM): 0.608 | viability ([8]; 4 µM): 0.738 | viability ([8]; 20 µM): 1.01 | viability ([9]; 0.032 µM): 0.795 | viability ([9]; 0.16 µM): 0.708 | viability ([9]; 0.8 µM): 0.8 | viability ([9]; 4 µM): 0.831 | viability ([9]; 20 µM): 0.701 | viability ([10]; 0.032 µM): 0.982 | viability ([10]; 0.16 µM): 0.958 | viability ([10]; 0.8 µM): 0.941 | viability ([10]; 4 µM): 0.959 | viability ([10]; 20 µM): 0.878 | viability ([11]; 0.032 µM): 0.966 | viability ([11]; 0.16 µM): 0.903 | viability ([11]; 0.8 µM): 0.957 | viability ([11]; 4 µM): 0.931 | viability ([11]; 20 µM): 0.807 | viability ([12]; 0.032 µM): 0.775 | viability ([12]; 0.16 µM): 0.707 | viability ([12]; 0.8 µM): 0.784 | viability ([12]; 4 µM): 0.775 | viability ([12]; 20 µM): 0.653 | viability ([13]; 0.032 µM): 0.88 | viability ([13]; 0.16 µM): 0.805 | viability ([13]; 0.8 µM): 0.892 | viability ([13]; 4 µM): 0.84 | viability ([13]; 20 µM): 0.498 | viability ([14]; 0.032 µM): 0.821 | viability ([14]; 0.16 µM): 0.753 | viability ([14]; 0.8 µM): 0.805 | viability ([14]; 4 µM): 0.765 | viability ([14]; 20 µM): 0.616 | viability ([15]; 0.032 µM): 0.885 | viability ([15]; 0.16 µM): 0.884 | viability ([15]; 0.8 µM): 0.926 | viability ([15]; 4 µM): 0.969 | viability ([15]; 20 µM): 0.869 | viability ([16]; 0.032 µM): 0.824 | viability ([16]; 0.16 µM): 0.746 | viability ([16]; 0.8 µM): 0.709 | viability ([16]; 4 µM): 0.65 | viability ([16]; 20 µM): 0.415 | viability ([17]; 0.032 µM): 0.749 | viability ([17]; 0.16 µM): 0.745 | viability ([17]; 0.8 µM): 0.738 | viability ([17]; 4 µM): 0.733 | viability ([17]; 20 µM): 0.692
